Assay [1] deals with HBV replication in HepG2-2.2.15 cells. Kind of assay: Dot-blot assay of HBV replication. The assay is classed as cell-based. The settings on record: Hepatitis B virus, 144 h. As for the experimental part:
Compounds active in the HBV assembly assay are tested for their activity and toxicity in cellular assay. In the first anti-viral assay, the ability of compounds to inhibit HBV replication in an HBV-producing hepatoma cell line using the dot-blot method is evaluated.
Briefly, confluent monolayers of HepG2-2.2.15 cells are incubated with complete medium containing various concentrations of a test compound. Three days later, the culture medium is replaced with fresh medium containing the appropriately diluted test compound. Six days following the initial administration of the test compound, the cell culture supernatant is collected, and cell lysis is performed. The samples are applied onto Nylos membranes and DNA is immobilized to the membrane by UV cross-linking. After pre-hybridization, the HBV probe is added and the hybridization is performed overnight. The membranes are exposed to the Kodak films; antiviral activity is calculated from the reduction in HBV DNA levels (EC50). The EC50 for antiviral activity is calculated from the dose response curves of active compounds.
In the first anti-viral assay, the ability of compounds to inhibit HBV replication in an HBV-producing hepatoma cell line using the dot-blot method was evaluated.
Confluent monolayers of HepG2-2.2.15 cells were incubated with complete medium containing various concentrations of a test compound. Three days later, the culture medium was replaced with fresh medium containing the appropriately diluted test compound. Six days following the initial administration of the test compound, the cell culture supernatant was collected, and cell lysis was performed. The samples were applied onto Nylos membranes and DNA was immobilized to the membrane by UV cross-linking. After pre-hybridization, the HBV probe was added and the hybridization was performed overnight. The membranes were exposed to the Kodak films; antiviral activity was calculated from the reduction in HBV DNA levels (EC50). The EC50 for antiviral activity was calculated from the dose response curves of active compounds. […]

In assay [2] the target is HBV C150Bo capsid protein (HBV CA protein) (Hepatitis B virus genotype D subtype adw, UniProt P03147, C107A/C48A/C61A/R150C). Kind of assay: HBV assembly assay (fluorescence quenching in vitro assembly). The assay is classed as biochemical. As to conditions: at 10 μM.
Chain of HBV C150Bo capsid protein (HBV CA protein) (P03147 1-150 C48A/C61A/C107A/R150C): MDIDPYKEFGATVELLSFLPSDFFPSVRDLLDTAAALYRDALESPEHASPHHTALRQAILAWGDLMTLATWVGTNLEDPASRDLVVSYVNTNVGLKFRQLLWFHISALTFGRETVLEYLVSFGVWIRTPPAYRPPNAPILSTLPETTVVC

For `CN(CCO)S(=O)(=O)c1cccc(C(=O)Nc2ccc(F)cc2)c1` [compound 332], the inhibition (usually how much of the control response was suppressed) at 10 µM in assay [1] was above 50%. In addition, the “Activity in HBV assembly assay” value in assay [2] is “+ (‘+’ indicates >50% activity at 10 μM)”.
For `CN(CC(O)CO)S(=O)(=O)c1cccc(C(=O)Nc2cccc(Cl)c2)c1` (stereo not shown) [compound 366], the inhibition at 10 µM in assay [1] is above 50%. For the same compound, the “Activity in HBV assembly assay” value in assay [2] is on record as “+ (‘+’ indicates >50% activity at 10 μM)”.
Compound `O=C(Nc1ccc(F)c(Br)c1)c1cccc(S(=O)(=O)N2CC(O)C2)c1` [compound 407] gave an inhibition at 10 µM in assay [1] above 50%. In assay [2], the “Activity in HBV assembly assay” value is listed as “+ (‘+’ indicates >50% activity at 10 μM)”.
In assay [1], `N#Cc1cc(NC(=O)c2cccc(S(=O)(=O)N3CCC(O)CC3)c2)ccc1F` [compound 419] gave an inhibition at 10 µM above 50%. The “Activity in HBV assembly assay” value in assay [2] is “+ (‘+’ indicates >50% activity at 10 μM)”.
`Cc1cc(NC(=O)c2cccc(S(=O)(=O)N3CCC(C)(CO)CC3)c2)ccc1F` [compound 478] returned an inhibition at 10 µM in assay [1] above 50%. Besides, in assay [2], the “Activity in HBV assembly assay” value was “+ (‘+’ indicates >50% activity at 10 μM)”.
Take `O=C(Nc1ccc(F)c(Cl)c1)c1cccc(S(=O)(=O)N2CCC(O)(CO)CC2)c1` [compound 501]: the inhibition at 10 µM in assay [1] is above 50%. The “Activity in HBV assembly assay” value in assay [2] is reported as “+ (‘+’ indicates >50% activity at 10 μM)”.
Compound `O=C(Nc1ccc(F)c(Cl)c1)c1cccc(S(=O)(=O)N2CCC(O)(c3ccccc3)CC2)c1` [compound 541] returned an inhibition at 10 µM in assay [1] above 50%. In addition, the “Activity in HBV assembly assay” value in assay [2] is on record as “+ (‘+’ indicates >50% activity at 10 μM)”.
Taken in the same sequence, the figures for `O=C(Nc1ccc(F)c(Cl)c1)c1cccc(S(=O)(=O)N2CCC(CO)(Cc3ccccc3)CC2)c1` [compound 553] were above 50% and “+ (‘+’ indicates >50% activity at 10 μM)”.
With `O=C(Nc1cc(F)c(F)c(Cl)c1)c1cccc(S(=O)(=O)N2CCC(O)CC2)c1` [compound 595], the inhibition at 10 µM in assay [1] was above 50%. Further, the “Activity in HBV assembly assay” value in assay [2] was “+ (‘+’ indicates >50% activity at 10 μM)”.
On the same counts, the results for `O=C(Nc1ccc(F)c(CF)c1)c1cccc(S(=O)(=O)N2CC(O)C2)c1` [compound 646] are above 50% and “+ (‘+’ indicates >50% activity at 10 μM)”.
In turn, `O=C(Nc1ccc(F)c(Br)c1)c1cccc(S(=O)(=O)N2CCC(O)(CO)CC2)c1` [compound 758] displayed an inhibition at 10 µM in assay [1] above 50%. Moreover, the “Activity in HBV assembly assay” value in assay [2] is “+ (‘+’ indicates >50% activity at 10 μM)”.
Taken in the same sequence, the figures for `O=C(Nc1cc(F)c(F)c(F)c1)c1cccc(S(=O)(=O)N2CCC(O)(c3ccc(F)cc3)CC2)c1` [compound 765] were above 50% and “+ (‘+’ indicates >50% activity at 10 μM)”.
Taken in the same sequence, the figures for `O=C(Nc1ccc(F)c(Cl)c1)c1cccc(S(=O)(=O)N2CCC(O)(c3cccc(F)c3F)CC2)c1` [compound 775] were above 50% and “+ (‘+’ indicates >50% activity at 10 μM)”.
`O=C(Nc1cc(F)c(F)c(CF)c1)c1cccc(S(=O)(=O)N2CC(O)C2)c1` [compound 803] displayed an inhibition at 10 µM in assay [1] above 50%. The “Activity in HBV assembly assay” value in assay [2] is given as “+ (‘+’ indicates >50% activity at 10 μM)”.
`O=C(Nc1ccc(F)c(Br)c1)c1cccc(S(=O)(=O)N2CC(O)C(F)C2)c1` (stereo not shown) [compound 826]: in assay [1], the inhibition at 10 µM was above 50%. Also, the “Activity in HBV assembly assay” value in assay [2] is reported as “+ (‘+’ indicates >50% activity at 10 μM)”.
In the case of `O=C(Nc1ccc(F)c(Br)c1)c1cccc(S(=O)(=O)NC2CCCC2O)c1` (stereo not shown) [compound 843], the inhibition at 10 µM in assay [1] was above 50%. In assay [2], the “Activity in HBV assembly assay” value is listed as “+ (‘+’ indicates >50% activity at 10 μM)”.
`O=C(Nc1ccc(F)c(Cl)c1)c1cc(S(=O)(=O)N2CCC(O)CC2)ccc1F` [compound 885] gave an inhibition at 10 µM in assay [1] above 50%. Further, the “Activity in HBV assembly assay” value in assay [2] was “+ (‘+’ indicates >50% activity at 10 μM)”.
Taken in the same sequence, the figures for `O=C(Nc1cc(F)c(F)c(F)c1)c1ccc(F)c(S(=O)(=O)N2CCC(O)CC2)c1` [compound 890] were above 50% and “+ (‘+’ indicates >50% activity at 10 μM)”.
Consider `O=C(Nc1cc(F)c(F)c(F)c1)c1ccc(F)c(S(=O)(=O)N2CCC(CCO)CC2)c1` [compound 900], for which, in assay [1], the inhibition at 10 µM was above 50%. Moreover, the “Activity in HBV assembly assay” value in assay [2] is listed as “+ (‘+’ indicates >50% activity at 10 μM)”.
As for `O=C(Nc1cc(F)c(F)c(F)c1)c1ccc(F)c(S(=O)(=O)N2CC(O)C2)c1` [compound 901], the inhibition at 10 µM in assay [1] was above 50%. In assay [2], the “Activity in HBV assembly assay” value is given as “+ (‘+’ indicates >50% activity at 10 μM)”.
On the same counts, the results for `O=C(Nc1cc(F)c(F)c(F)c1)c1ccc(F)c(S(=O)(=O)N2CCC(O)C2)c1` (stereo not shown) [compound 903] are above 50% and “+ (‘+’ indicates >50% activity at 10 μM)”.
On the same counts, the results for `O=C(Nc1ccc(F)c(Cl)c1)c1ccc(F)c(S(=O)(=O)N2CCC(CCO)CC2)c1` [compound 914] are above 50% and “+ (‘+’ indicates >50% activity at 10 μM)”.
On the same counts, the results for `O=C(Nc1cc(F)c(F)c(F)c1)c1ccc(F)c(S(=O)(=O)N2CCC(O)(CO)CC2)c1` [compound 916] are above 50% and “+ (‘+’ indicates >50% activity at 10 μM)”.
`COC(=O)c1ccc(C(=O)Nc2cc(F)c(F)c(F)c2)cc1S(=O)(=O)N1CCC(O)CC1` [compound 927] returned an inhibition at 10 µM in assay [1] above 50%. Besides, the “Activity in HBV assembly assay” value in assay [2] is listed as “+ (‘+’ indicates >50% activity at 10 μM)”.
Taken in the same sequence, the figures for `Cc1ccc(S(=O)(=O)N2CCC(O)CC2)cc1C(=O)Nc1cc(F)c(F)c(F)c1` [compound 928] were above 50% and “+ (‘+’ indicates >50% activity at 10 μM)”.
Compound `O=C(Nc1cc(F)c(F)c(Cl)c1)c1cccc(S(=O)(=O)N2CC(O)C2)c1` [compound 935] came in with an inhibition at 10 µM in assay [1] above 50%. Besides, the “Activity in HBV assembly assay” value in assay [2] is reported as “+ (‘+’ indicates >50% activity at 10 μM)”.
On the same counts, the results for `O=C(Nc1ccc(F)c(Cl)c1)c1ccc(F)c(S(=O)(=O)N2CC(O)C2)c1` [compound 953] are above 50% and “+ (‘+’ indicates >50% activity at 10 μM)”.
On the same counts, the results for `O=C(Nc1ccc(F)c(Cl)c1)c1ccc(F)c(S(=O)(=O)NC2CCC(O)C2)c1` (stereo not shown) [compound 958] are above 50% and “+ (‘+’ indicates >50% activity at 10 μM)”.
On to `O=C(Nc1ccc(F)c(Br)c1)c1ccc(F)c(S(=O)(=O)NC2CCC(O)C2)c1` (stereo not shown) [compound 959], for which the inhibition at 10 µM in assay [1] was above 50%. In addition, in assay [2], the “Activity in HBV assembly assay” value is on record as “+ (‘+’ indicates >50% activity at 10 μM)”.
Taken in the same sequence, the figures for `O=C(Nc1ccc(F)c(Cl)c1)c1ccc(Cl)c(S(=O)(=O)NC2CC(O)C2)c1` (stereo not shown) [compound 1042] were above 50% and “+ (‘+’ indicates >50% activity at 10 μM)”.
On the same counts, the results for `O=C(Nc1cc(F)c(F)c(F)c1)c1ccc(Cl)c(S(=O)(=O)N2CCC(O)CC2)c1` [compound 1057] are above 50% and “+ (‘+’ indicates >50% activity at 10 μM)”.
For `O=C(Nc1ccc(F)c(Br)c1)c1ccc(Cl)c(S(=O)(=O)N2CCC(CCO)CC2)c1` [compound 1087], the inhibition at 10 µM in assay [1] is above 50%. The “Activity in HBV assembly assay” value in assay [2] is “+ (‘+’ indicates >50% activity at 10 μM)”.
On the same counts, the results for `O=C(Nc1ccc(F)c(Br)c1)c1ccc(Cl)c(S(=O)(=O)N2CCC(O)(CO)CC2)c1` [compound 1099] are above 50% and “+ (‘+’ indicates >50% activity at 10 μM)”.
In assay [1], `O=C(Nc1cc(F)c(F)c(F)c1)c1cc(S(=O)(=O)NC2CCCC2O)ccc1Cl` (stereo not shown) [compound 1113] gave an inhibition at 10 µM above 50%. Also, the “Activity in HBV assembly assay” value in assay [2] is “+ (‘+’ indicates >50% activity at 10 μM)”.
As to `O=C(Nc1ccc(F)c(Cl)c1)c1cc(S(=O)(=O)NC2CCCC2O)ccc1Cl` (stereo not shown) [compound 1114], the inhibition at 10 µM in assay [1] was above 50%. The “Activity in HBV assembly assay” value in assay [2] is “+ (‘+’ indicates >50% activity at 10 μM)”.
On the same counts, the results for `O=C(Nc1cc(F)c(F)c(F)c1)c1cc(S(=O)(=O)NC2CCCCC2O)ccc1Cl` (stereo not shown) [compound 1129] are above 50% and “+ (‘+’ indicates >50% activity at 10 μM)”.
In assay [1], `O=C(Nc1cc(F)c(F)c(F)c1)c1ccc(Cl)c(S(=O)(=O)N2CCC(O)(CO)CC2)c1` [compound 1130] came in with an inhibition at 10 µM above 50%. For the same compound, the “Activity in HBV assembly assay” value in assay [2] was “+ (‘+’ indicates >50% activity at 10 μM)”.
On the same counts, the results for `O=C(Nc1cc(F)c(F)c(F)c1)c1cc(S(=O)(=O)N2CCC(O)CC2)ccc1Cl` [compound 1149] are above 50% and “+ (‘+’ indicates >50% activity at 10 μM)”.

These data come from patent US9751857B2, “Hepatitis B antiviral agents” (NOVIRA THERAPEUTICS, INC., priority 2011, dated 2017).
